This is an account of results in ChEMBL document CHEMBL1156751, “Design, synthesis, and biological activity of bicyclic radester analogues as Hsp90 inhibitors” (Bioorg Med Chem Lett, 2009).

Test [1] concerns MCF7. Kind of test: Antiproliferative activity against human MCF7 cells. It counts as functional, cell-based.
In the next test the test system is SK-BR-3. The test is described as follows: Antiproliferative activity against human SK-BR-3 cells. It counts as functional, cell-based.
Test [2] concerns MCF7. The test is described as follows: Selectivity ratio of IC50 for human SKBr3 cells to IC50 for human MCF7 cells. Type of test: functional.
Test [3] can be described thus: Inhibition of Hsp90 N-terminal assessed as AKt degradation by Western blotting. On the technique in general: In western blotting, separated proteins are transferred to a membrane and probed.
Test [4] is described as follows: Inhibition of Hsp90 N-terminal assessed as c-RAF degradation by Western blotting.
Test [5] is described as follows: Inhibition of Hsp90 N-terminal assessed as Her2 degradation by Western blotting.
Test [6] in a line: Inhibition of Hsp90 N-terminal assessed as increase in Hsp70 level.

As usually defined, the IC50 is the concentration at which inhibition is half-maximal. Read a high IC50 as lower potency.

Consider `COC1=C(CCC2Cc3c(Cl)c(O)cc(O)c3C2=O)C(=O)C(NC=O)=CC1=O` (stereo not drawn), for which the values for the IC50 with MCF7 [1] and in the test on SK-BR-3 were 15.1 µM and 47.3 µM, respectively. Besides, the “Ratio IC50” value with MCF7 [2] was 3.
Take `COC1=C(C/C=C2/Cc3c(Cl)c(O)cc(O)c3C2=O)C(=O)C(NC=O)=CC1=O`: the half-maximal inhibitory concentration (IC50) worked out at 15.2 µM in the test with MCF7 [1] and 40.8 µM in the test with SK-BR-3. For the same molecule, in the test with MCF7 [2], the “Ratio IC50” value was found to be 3.
For the molecule `COc1c(O)cc(NC=O)c(O)c1CCC1Cc2c(Cl)c(O)cc(O)c2C1=O` (stereo not drawn), the IC50 in the test on MCF7 [1] worked out at 12.9 µM; with SK-BR-3 it was 42.1 µM. For the same molecule, the Activity result in test [3], in test [4], in test [5] and in test [6] was “Dose-dependent effect” in each case. Further, the “Ratio IC50” value with MCF7 [2] came out at 3.
Consider `COC1=C(CCC2CCc3c(Cl)c(O)cc(O)c3C2=O)C(=O)C(NC=O)=CC1=O` (stereo not drawn), for which the half-maximal inhibitory concentration (IC50) in the test with MCF7 [1] came to 11.4 µM; with SK-BR-3 it was 12.8 µM.
As for `COC1=C(C/C=C2/CCc3c(Cl)c(O)cc(O)c3C2=O)C(=O)C(NC=O)=CC1=O`, the values for the IC50 in the test with MCF7 [1] and in the test with SK-BR-3 were 11.8 µM and 12.5 µM, respectively.
On to `C[C@@H]1C[C@H]2O[C@@H]2/C=C\C=C\C(=O)Cc2c(Cl)c(O)cc(O)c2C(=O)O1` [RADICICOL], for which the IC50 came to 0.0477 µM in the test with MCF7 [1] and 0.0375 µM in the test with SK-BR-3.
The molecule `COC1=C(CC(C)OC(=O)c2cc(Cl)c(O)cc2O)C(=O)C(NC=O)=CC1=O` (stereo not drawn) [RADESTER] came in with an IC50 with MCF7 [1] of 13.9 µM.
`COC1=C2C[C@@H](C)C[C@H](OC)[C@H](O)[C@@H](C)/C=C(\C)[C@H](OC(N)=O)[C@@H](OC)/C=C\C=C(/C)C(=O)NC(=CC1=O)C2=O` [GELDANAMYCIN]: the IC50 is 0.0161 µM in the test on MCF7 [1] and 0.0158 µM with SK-BR-3.
Regarding `COc1c(O)cc(NC=O)c(O)c1CCC1CCc2c(Cl)c(O)cc(O)c2C1=O` (stereo not drawn), the results for the 50% inhibitory concentration (IC50) in the test with MCF7 [1] and in the test with SK-BR-3 were 9.5 µM and 10.5 µM, respectively. For the same molecule, the Activity entry in test [3], in test [4], in test [5] and in test [6] was “Dose-dependent effect” in each case.
